The assay can be described thus: Cleave kinetics of 3′-O-capped nucleotide in cleave mix, monitored by UPLC. It counts as physicochemical. The settings on record: 10 mM Mg2+ in the cleave mix versus none; 20 mM DMPS, pH 9.5. As for the experimental part:
A 3′-O-capped nucleotide was treated with a cleave mix DMPS/THPP and the concentration of the 3′-capped nucleotide was monitored by UPLC with a UV detector at a fixed time interval.
In [A]=−kt+In[A]0 and t1/2=In2/k with [A]: reactant concentration; k: reaction rate coefficient
Nucleotide: MeSSdATP, 4.7 mM in 1× TE buffer;
12.8 μL of nucleotide was added to 287 μL of cleave mix in a 1.5 mL of UPLC sample vial. The resulting mixture was analyzed by UPLC right away and every 10 min afterwards automatically for up to 120 min. The area of the starting nucleotide peak was measured at each time point and the value was used directly for the calculation. From the rate of peak area reduction or disappearance of the intermediate the rate constant and the half-life of the intermediate calculated as discussed earlier.

In the case of `CSSCO[C@H]1C[C@H](n2cnc3c(N)ncnc32)O[C@@H]1COP(=O)(O)OP(=O)(O)OP(=O)(O)O` [MeSSdATP, 3′-O—(MeSSCH2)-dATP], the reduction of half-life is reported as not above 30%.

These data come from patent US20250154546A1, “USE OF 3'-OXYMETHYLENE ALKYL DISULFIDE PROTECTED NUCLEOTIDES FOR ENZYMATIC DNA AND RNA SYNTHESIS” (Miltenyi Biotec B.V. & Co. KG, priority 2022, published 2025).
